Article PMC10057066, “Unraveling the Aquaporin-3 Inhibitory Effect of Rottlerin by Experimental and Computational Approaches” (International Journal of Molecular Sciences, 2023)

Biological target: T1, aquaporin-3 (AQP3) (Homo sapiens, UniProt Q92482)
T1 construct: human AQP3 C-terminally GFP-tagged, expressed in aqy-null S. cerevisiae; endogenous AQP3 in human red blood cells
T1 sequence (Q92482 1-292): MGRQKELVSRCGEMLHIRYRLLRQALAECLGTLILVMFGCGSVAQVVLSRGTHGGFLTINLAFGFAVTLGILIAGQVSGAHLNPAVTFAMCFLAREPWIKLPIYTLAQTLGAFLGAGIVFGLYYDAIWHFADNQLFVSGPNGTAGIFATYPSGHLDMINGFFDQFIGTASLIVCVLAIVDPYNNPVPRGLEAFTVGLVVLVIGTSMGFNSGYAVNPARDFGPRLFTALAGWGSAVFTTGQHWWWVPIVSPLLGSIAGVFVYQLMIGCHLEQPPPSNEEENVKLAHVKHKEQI
Test: stopped-flow glycerol permeability in hRBCs (IC50), confirmed in hAQP3-expressing yeast ([…] inhibition at […])
Assay type: cell-based

CC(=O)c1c(O)c(C)c(O)c(Cc2c(O)c3c(c(C(=O)/C=C/c4ccccc4)c2O)OC(C)(C)C=C3)c1O [RoT, Rottlerin]
IC50: 6.7 ± 2.97 µM
